Reference: patent publication US6156724A, “Uses of didemnins as immunomodulating agents” (priority 1998, dated 2000)
Numbered stars: 1 amine (or outer) side, 2 acyl side, 3 side chain; on linkers, the order of the positions; unused ones are H or OH. Bridge positions count the residues as written; N and C are the ends. Square brackets hold non-standard residues; d marks the D form. Peptide text beside a SMILES is read from it. * marks the point of attachment. X4 = CC[C@H](C)[C@@H](N[*:1])[C@@H](O)CC(=O)O[C@@H](C(C)C)[C@H](O)[C@H](C)C(=O)[*:2]; X1 = CC[C@H](C)[C@@H](N[*:1])[C@@H](O)CC(=O)O[C@H](C(=O)[C@H](C)C(=O)[*:2])C(C)C; X3 = CC[C@H](C)[C@H](N[*:1])[C@@H](O)CC(=O)O[C@H](C(=O)[C@H](C)C(=O)[*:2])C(C)C; X6 = CC[C@H](C)[C@@H](N[*:1])[C@H](O)CC(=O)O[C@H](C(=O)[C@H](C)C(=O)[*:2])C(C)C; NMeY = CN[C@@H](Cc1ccc(O)cc1)C(=O)O; aThr = C[C@H](O)[C@H](N)C(=O)O; NMeL = CN[C@@H](CC(C)C)C(=O)O; dNMeL = CN[C@H](CC(C)C)C(=O)O; pGlu = O=C1CC[C@@H](C(=O)O)N1; Isobutyryl = CC(C)C(=O)*; Cbz = O=C(OCc1ccccc1)*; Lac = C[C@H](O)C(=O)O; For = O=C*

Legend:
[1] = system: murine splenocytes (Balb/c and C57B1/6); assay: Two-way mixed lymphocyte reaction (MLR) assay; details: Balb/c + C57B1/6 splenocytes, 96 h, [3H]thymidine; for IC50: read-out: two-way mixed lymphocyte reaction (MLR) suppression MLR, IC50;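 for all read-outs here: proliferation read as tritiated thymidine incorporation into newly made DNA after an overnight pulse, expressed as percent of control activity, IC50 interpolated per compound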
[2] = system: concanavalin A-induced lymphoblasts (Con A splenocytes); assay: Lymphoblast viability (LbV) assay; details: Con A-stimulated splenocytes (lymphoblasts), MTT
[3] = system: Balb/c splenocytes (resting lymphocytes); assay: Lymphocyte viability (LcV) assay; format: cell-based, murine; details: unstimulated Balb/c splenocytes, MTT
Method: Forty two (42) didemnin compounds (see Table 1) were evaluated for cytotoxicity to one of the lymphocyte populations in the MLR (i.e., Balb/c splenocytes). The purpose of the lymphocyte viability assay (LcV) is to measure metabolic activity in lymphocytes after they have been exposed to the compounds for the duration of an under conditions equivalent to the MLR. The inverse of the data yields cytotoxicity information about the compounds on murine lymphocytes. The rationale of using resting cells, in this case unstimulated lymphocytes, to measure cytotoxicity has a strategic importance. In the MLR the heterogenous cell populations are predominantly resting cells when the assay begins.
Test compounds were prepared in two sets as described above. Splenocytes were prepared as described previously from one murine strain (Balb/c), and a volume of 200 μL of the cell suspension was added to one set of test compounds and control wells.
Assay plates were incubated as in the MLR and then pulsed overnight 75 μL per well MTT-thiazolyl blue solution (150 μg). The plates were decanted and the resulting insoluble formazan crystals were dissolved in 200 μL of isopropyl alcohol. Absorbance at 570 nm was measured.
The LcV data were calculated as a percentage of basal metabolic activity, or percent viability, relative to BALB/c control, and an LC50 value was interpolated for each test compound.

[4] = system: CB6F1 mice grafted with Balb/c splenocytes; assay: Graft vs host reaction (GVHR) splenomegaly assay; format: in vivo; details: 200 mg/Kg/day, QD 1-7, ip
Method: Three representative compounds didemnin M (38), O-pGlu-DB (37), and didemnin B (1)-showing high (37,38) or moderate (1) in vivo immunosuppressive activity were subsequently evaluated in a multidose assay (0.16,0.016, and 0.0016 mg/kg per injection; qd 1-7) for their in vivo immunosuppressive effects on the GVHR splenomegaly assay.
Three didemnins (didemnin B, didemnin M, and pGlu-didemnin B) were evaluated in a modified Simonsen splenomegaly assay. Briefly, an F1 hybrid host animal is grated with immunocompetent spleen cells from the parent strain. The index used to measure the success of the GVHR is splenomegaly (increased spleen weight due to cellular proliferation of grafted lymphocytes). An index>1.3 (graft index) is considered to be a successful graft rejection of the recipient animal. Immunosuppression is considered as a reduction of the graft index.
On day O, CB6F1 female mice, 4 weeks of age, were grated by intraperitoneal (ip) injection of 50×10^5 splenocytes from BALB/c female mice in high-glucose ([…]) Dulbecco's modified Eagles medium. A syngeneic control group (CB6F1 --CB6F1) was similarly prepared and served as the negative control. Grafted mice were divided into treatment groups containing six mice each. Groups were injected ip with test compound (dissolved in vehicle; 1% abs. EtOH in sterile phosphate-buffered saline) at one of three dose levels (0.16, 0.016, and 0.0016 mg/kg per injection) in a multidose assay, cyclophosphamide (200 mg/kg per injection) or vehicle on days 1-7 (qd 1-7). On day 8 all groups were sacrificed, spleens were excised, and a graft index was calculated for each group by the following formula: [formula]

| Molecule | two-way mixed lymphocyte reaction (MLR) suppression MLR, IC50 [1] | IC50 [1] | cytotoxicity to lymphocytes LbV, LC50 [2] | cytoxicity to lymphocytes LcV, LC50 [3] | cytoxicity to lymphocytes LcV, LC50 ([3]; highest concentration 10 μg/mL) | alive day 8 [4] | body weight change day 5 [4] | body weight day 5 (g ± SD) [4] | index (spleen wt. treated/spleen wt. syngenetic injection) [4] | mean group spleen wt. normalized to day 8 body weight [4] |
| --- | --- | --- | --- | --- | --- | --- | --- | --- | --- | --- |
| CC[C@H](C)[C@H]1NC(=O)[C@@H](NC(=O)[C@@H](CC(C)C)NC)[C@@H](C)OC(=O)[C@H](Cc2ccc(OC)cc2)N(C)C(=O)[C@@H]2CCCN2C(=O)[C@H](CC(C)C)NC(=O)[C@@H](C)[C@@H](O)[C@H](C(C)C)OC(=O)C[C@@H]1O [Compound 10, [(2S,3R,4S)-H2 Hip^3]Didemnin A] (H-[dNMeL]T[X4]LP[NMeY](Me); ester 2-C) | 29.0 ng/mL | 30.5 nM | 460 nM | > 10600 nM | > 10000 ng/mL | – | – | – | – | – |
| O=P1(N(CCCl)CCCl)NCCCO1 (centres unmarked) [Cyclophosphamide, reference compound] | – | – | – | – | – | 100% | -2.5 g | 13.8 ± 0.4 g | 0.14 | 0.4 |
| CC[C@H](C)[C@@H]1NC(=O)[C@@H](NC(=O)[C@H](CC(C)C)N(C)C=O)[C@H](C)OC(=O)[C@H](Cc2ccc(OC)cc2)N(C)C(=O)[C@@H]2CCCN2C(=O)[C@H](CC(C)C)NC(=O)[C@@H](C)C(=O)[C@H](C(C)C)OC(=O)C[C@@H]1O [Compound 26, Didemnin G] (For-[NMeL][aThr][X3]LP[NMeY](Me); ester 2-C) | 0.70 ng/mL | 0.72 nM | 1.1 nM | > 10000 nM | > 10000 ng/mL | – | – | – | – | – |
| CC[C@H](C)[C@H]1NC(=O)[C@@H](NC(=O)[C@@H](CC(C)C)N(C)C(=O)[C@@H]2CCCN2C(=O)[C@H](C)O)[C@@H](C)OC(=O)[C@H](CC2CCCCC2)N(C)C(=O)[C@@H]2CCCN2C(=O)[C@H](CC(C)C)NC(=O)[C@@H](C)C(=O)[C@H](C(C)C)OC(=O)C[C@@H]1O [Compound 16, [H6 -N-MePhe^6]Didemnin B] | 0.57 ng/mL | 0.52 nM | 0.73 nM | > 9200 nM | > 10000 ng/mL | – | – | – | – | – |
| CC[C@H](C)[C@H]1NC(=O)[C@@H](NC(=O)[C@@H](CC(C)C)N(C)C(=O)[C@@H]2CCCN2C(=O)C(C)C)[C@@H](C)OC(=O)[C@H](Cc2ccc(OC)cc2)N(C)C(=O)[C@@H]2CCCN2C(=O)[C@H](CC(C)C)NC(=O)[C@@H](C)C(=O)[C@H](C(C)C)OC(=O)C[C@@H]1O [Compound 33, [Isobutyryl^9]Didemnin B] (Isobutyryl-P[dNMeL]T[X1]LP[NMeY](Me); ester 3-C) | 0.041 ng/mL | 0.037 nM | 0.204 nM | 2240 nM | 2400 ng/mL | – | – | – | – | – |
| CC[C@H](C)[C@H]1NC(=O)[C@@H](NC(=O)[C@@H](CC(C)C)N(C)C(=O)[C@@H]2CCCN2C(=O)[C@H](C)OC(=O)[C@H](CCC(N)=O)NC(=O)[C@H](CCC(N)=O)NC(=O)[C@H](CCC(N)=O)NC(=O)[C@@H]2CCC(=O)N2)[C@@H](C)OC(=O)[C@H](Cc2ccc(OC)cc2)N(C)C(=O)[C@@H]2CCCN2C(=O)[C@H](CC(C)C)NC(=O)[C@@H](C)C(=O)[C@H](C(C)C)OC(=O)C[C@@H]1O [Compound 40, Didemnin D] ([pGlu]QQQ[Lac]P[dNMeL]T[X1]LP[NMeY](Me); ester 8-C) | 0.20 ng/mL | 0.12 nM | 0.85 nM | > 6220 nM | > 10000 ng/mL | – | – | – | – | – |
| CC[C@H](C)[C@H]1NC(=O)[C@@H](NC(=O)[C@@H](CC(C)C)N(C)C(=O)OCc2ccccc2)[C@@H](C)OC(=O)[C@H](Cc2ccc(OC)cc2)N(C)C(=O)[C@@H]2CCCN2C(=O)[C@H](CC(C)C)NC(=O)[C@@H](C)C(=O)[C@H](C(C)C)OC(=O)C[C@H]1O [Compound 4, Z-[(3R,4R,5S)Ist^2]Didemnin A] (Cbz-[dNMeL]T[X6]LP[NMeY](Me); ester 2-C) | 19.0 ng/mL | 18 nM | 220 nM | 9000 nM | 9700 ng/mL | – | – | – | – | – |
| Didemnin Y [Compound 42] | 0.89 ng/mL | 0.5 nM | 1.1 nM | > 5570 nM | > 10000 ng/mL | – | – | – | – | – |
| CC[C@H](C)[C@H]1NC(=O)[C@@H](NC(=O)[C@@H](CC(C)C)N(C)C(=O)[C@@H]2CCCN2C(C)=O)[C@@H](C)OC(=O)[C@H](Cc2ccc(OC)cc2)N(C)C(=O)[C@@H]2CCCN2C(=O)[C@H](CC(C)C)NC(=O)[C@@H](C)C(=O)[C@H](C(C)C)OC(=O)C[C@@H]1O [Compound 31, [Acetyl^9]Didemnin B] (Ac-P[dNMeL]T[X1]LP[NMeY](Me); ester 3-C) | 0.22 ng/mL | 0.21 nM | 0.16 nM | 2800 nM | 3100 ng/mL | – | – | – | – | – |
| CC[C@H](C)[C@H]1NC(=O)[C@@H](NC(=O)[C@@H](CC(C)C)NC)[C@@H](C)OC(=O)[C@H](Cc2ccc(OC)cc2)N(C)C(=O)[C@@H]2CCCN2C(=O)[C@H](CC(C)C)NC(=O)[C@@H](C)C(=O)[C@H](C(C)C)OC(=O)C[C@@H]1OC(C)=O [Compound 7, O-Acetyldidemnin A] | 100 ng/mL | 100 nM | 77 nM | > 10000 nM | > 10000 ng/mL | – | – | – | – | – |
| [Phth-Ala^9 ]DB [Compound 8] | 0.49 ng/mL | 0.39 nM | 0.81 nM | > 8100 nM | > 10000 ng/mL | – | – | – | – | – |
| CC[C@H](C)[C@H]1NC(=O)[C@@H](NC(=O)[C@@H](CC(C)C)N(C)C(=O)[C@H](C)NC(=O)[C@H](C)O)[C@@H](C)OC(=O)[C@H](Cc2ccc(OC)cc2)N(C)C(=O)[C@@H]2CCCN2C(=O)[C@H](CC(C)C)NC(=O)[C@@H](C)C(=O)[C@H](C(C)C)OC(=O)C[C@@H]1O [Compound 35, [L-Ala^8]Didemnin B] | 0.33 ng/mL | 0.31 nM | 0.717 nM | > 9200 nM | > 10000 ng/mL | – | – | – | – | – |
| CC[C@H](C)[C@H]1NC(=O)[C@@H](NC(=O)[C@@H](CC(C)C)N(C)C(=O)[C@@H](N)CC(C)C)[C@@H](C)OC(=O)[C@H](Cc2ccc(OC)cc2)N(C)C(=O)[C@@H]2CCCN2C(=O)[C@H](CC(C)C)NC(=O)[C@@H](C)C(=O)[C@H](C(C)C)OC(=O)C[C@@H]1O [Compound 27, N-(L-Leu)Didemnin A] (H-L[dNMeL]T[X1]LP[NMeY](Me); ester 3-C) | 0.78 ng/mL | 0.74 nM | 3.8 nM | > 9500 nM | > 10000 ng/mL | – | – | – | – | – |
| CC[C@H](C)[C@H]1NC(=O)[C@@H](NC(=O)[C@@H](CC(C)C)N(C)C(=O)[C@@H]2CCCN2C(=O)[C@H](C)O)[C@@H](C)OC(=O)[C@H](CC2CCC(OC)CC2)N(C)C(=O)[C@@H]2CCCN2C(=O)[C@H](CC(C)C)NC(=O)[C@@H](C)C(=O)[C@H](C(C)C)OC(=O)C[C@@H]1O (some centres unmarked) [Compound 15, [H6 Me2 Tyr6]Didemnin B] | 0.81 ng/mL | 0.72 nM | 1.6 nM | – | – | – | – | – | – | – |
